# Assay results published in patent publication US20160067241A1, “COMPOSITIONS AND METHODS TO IMPROVE THE THERAPEUTIC BENEFIT OF SUBOPTIMALLY ADMINISTERED CHEMICAL COMPOUNDS INCLUDING SUBSTITUTED NAPHTHALIMIDES SUCH AS AMONAFIDE FOR THE TREATMENT OF IMMUNOLOGICAL, METABOLIC, INFECTIOUS, AND BENIGN OR NEOPLASTIC HYPERPROLIFERATIVE DISEASE CONDITIONS” (priority 2013, published 2016).
# Assays:
# topoisomerase II = conditions: Hsiang et al. 1989; cited from earlier work
# [1] = system: RIF-1 murine fibrosarcoma; experiment: RIF-1 fibrosarcoma tumor growth delay (tumor volume quadrupling time) in mice; type: in vivo, Female C3H mice; conditions: for enhancement of amonafide activity by sensitizing or potentiating agent: agent given with amonafide
# From the text: Tables 1 and 2, shown in FIGS. 1 and 2, respectively, show the use of amonafide, alone or in combination with another anti-neoplastic drug, in a tumor model in mice as described below Female C3H mice (Charles River Laboratories, Hollister, Calif.), approximately 3 months old, were used for the study. The average body weight was approximately 25 g. Animals were maintained in isolator cages on a 12-hour light-and-dark cycle. Food and water were available ad libitum. The RIF-1 murine fibrosarcoma cell line was maintained in in vitro culture (Waymouth medium supplemented with 20% fetal bovine serum) at 37° C. in a humidified 5% CO2 incubator. Log-phase RIF-1 cells were trypsinized and harvested from cell culture flasks to yield a concentration of 4×10^6 cells/mL, then injected intradermally in a volume of 50 μL (equivalent to 2×10^5 cells per injection) into both flanks of each mouse. Nine days later, when tumors reached approximately 100 mm^3 in size, the animals were randomized to different treatment groups. The intraperitoneal injection volume was 100 μL. The oral administration volume was 100 μL. For evaluation of tumor growth delay, tumors were measured three times weekly for up to 22 days with Vernier calipers. Tumor volume (cubic millimeters, mm^3) was calculated according to the following formula: V=π/6×D1×D2×D3, where D1, D2, and D3 are perpendicular diameters measured in […]. Tumor volume quadrupling time (TVQT), defined as the time required for a tumor to grow to four times (4×) its initial volume (at the time of treatment), was used as a study endpoint. The TVQT was determined for each treatment group and expressed in days as the mean±standard error (SE). In these tables, “CDDP” is cisplatin, “VBL” is vinblastine, “HHT” is homoharringtonine, “5FU” is 5-fluorouracil, “CPT” is camptothecin, “RA” is rosmarinic acid, and “MGBG” is methylglyoxalbisguanylhydrazone. For solvents and excipients, “Sal” is saline, “NMF” is N-methylformamide, and “PEG400” is polyethylene glycol 400. For routes of administration, “IP” is intraperitoneal, “PO” is oral, “IM” is intramuscular, and “SC” is subcutaneous. In these tables, the use of the “+” symbol means that both drugs were administered at the same time, while the use of the “ ? ” symbol means that the drug to the left of the symbol was administered first, followed by the drug to the right of the symbol; the second drug was administered 30 minutes after the first drug. In the headings for these tables, “Days to 4×” is the number of days it takes the tumors to grow to four times their original size. “T/C” represents the average number of days that it takes the tumors to grow to four times their original size for the specified treatment divided by the number of days that it takes the tumors to grow to four times their original size for the control.
# N-acetyltransferase NAT2 = target: T1, N-acetyltransferase NAT2 (Homo sapiens, UniProt P11245); conditions: cited from earlier work
# T1 sequence (P11245 1-290): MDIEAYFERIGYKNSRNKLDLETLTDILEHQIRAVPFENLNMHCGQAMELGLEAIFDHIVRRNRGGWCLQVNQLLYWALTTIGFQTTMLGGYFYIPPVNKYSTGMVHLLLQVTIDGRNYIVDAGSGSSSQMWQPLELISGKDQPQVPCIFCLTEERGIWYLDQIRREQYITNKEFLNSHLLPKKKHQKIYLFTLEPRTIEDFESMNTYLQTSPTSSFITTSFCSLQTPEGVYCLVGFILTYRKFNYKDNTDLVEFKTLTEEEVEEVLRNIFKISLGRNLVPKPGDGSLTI
# [2] = system: white blood cell count (WBC); conditions: patients; cited from earlier work
# [3] = target: glycogen synthase kinase-3β (GSK-3β) (Homo sapiens, UniProt P49841); conditions: cited from earlier work
# Chain of glycogen synthase kinase-3β (GSK-3β) (P49841 whole entry, species assumed): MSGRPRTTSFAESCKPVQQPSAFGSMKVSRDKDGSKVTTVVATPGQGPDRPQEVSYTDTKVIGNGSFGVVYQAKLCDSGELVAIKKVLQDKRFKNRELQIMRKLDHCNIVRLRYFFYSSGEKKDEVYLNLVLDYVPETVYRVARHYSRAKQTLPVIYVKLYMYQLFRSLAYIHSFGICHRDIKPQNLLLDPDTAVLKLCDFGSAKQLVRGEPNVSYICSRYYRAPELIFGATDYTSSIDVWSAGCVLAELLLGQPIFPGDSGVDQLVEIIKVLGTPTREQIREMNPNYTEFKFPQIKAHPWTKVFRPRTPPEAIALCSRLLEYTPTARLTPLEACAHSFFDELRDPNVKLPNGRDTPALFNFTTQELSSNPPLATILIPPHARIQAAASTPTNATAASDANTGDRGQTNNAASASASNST
smiles,measurement,setting,value
"CN(C)CCN1C(=O)c2cccc3cc(N)cc(c23)C1=O [amonafide, 5-amino-2-[2-(dimethylamino)ethyl]-1H-benzo[de]isoquinoline-1,3(2H)-dione]",promotion of topoisomerase II-mediated DNA cleavage,topoisomerase II,promote topoisomerase II-mediated DNA cleavage
same,effect on tumor growth,"[1]; RIF-1 tumors in C3H mice, alone or in combination with another anti-neoplastic drug",significant effect on tumor growth
same,combination effect with another anti-neoplastic drug,[1]; amonafide administered together with another anti-neoplastic drug,evidence of synergism
same,enhancement of antitumor effects of other drugs (chemosensitizer or chemopotentiator),[1]; amonafide combined with a second drug,"enhanced the antitumor effects of cisplatin, 5-fluorouracil, homoharringtonine, vinblastine, camptothecin, methylglyoxalbisguanylhydrazone, and cytarabine"
same,antiproliferative activity by route,[1]; direct systemic (intraperitoneal) administration or oral route,active antiproliferative agent
same,activity by schedule,[1]; single administration or multiple oral doses,active after a single administration or given as multiple doses orally
same,metabolism by NAT2,N-acetyltransferase NAT2,converted to an active metabolite by way of the N-acetyltransferase NAT2
COc1ccc2cc3[n+](cc2c1OC)CCc1cc2c(cc1-3)OCO2 [berberine],enhancement of amonafide activity by sensitizing or potentiating agent,[1],enhances amonafide activity
CC(=O)Nc1cc2c3c(cccc3c1)C(=O)N(CCN(C)C)C2=O [acetyl amonafide],impact on white blood cell count,[2],"induce leukocytopenia and, in particular, granulocytopenia"
CN1C(=O)/C(=C2/C(=O)Nc3ccccc32)c2ccccc21 [Meisoindigo],concentration for inhibition of GSK-3β,[3],5 to 50 nM
NC(=O)c1cccnc1 [nicotinamide],enhancement of amonafide activity by sensitizing or potentiating agent,[1],enhances amonafide activity
